These results are taken from the kinase profiling compilation of Christmann-Franck et al. (2016).

A value given as a limit tells only on which side of the number the result lay.

For the test, the target named is SGK1 (human) (UniProt O00141). The test is described as follows: Flashplate.
SGK1 (human), sequence (O00141 whole entry, looked up): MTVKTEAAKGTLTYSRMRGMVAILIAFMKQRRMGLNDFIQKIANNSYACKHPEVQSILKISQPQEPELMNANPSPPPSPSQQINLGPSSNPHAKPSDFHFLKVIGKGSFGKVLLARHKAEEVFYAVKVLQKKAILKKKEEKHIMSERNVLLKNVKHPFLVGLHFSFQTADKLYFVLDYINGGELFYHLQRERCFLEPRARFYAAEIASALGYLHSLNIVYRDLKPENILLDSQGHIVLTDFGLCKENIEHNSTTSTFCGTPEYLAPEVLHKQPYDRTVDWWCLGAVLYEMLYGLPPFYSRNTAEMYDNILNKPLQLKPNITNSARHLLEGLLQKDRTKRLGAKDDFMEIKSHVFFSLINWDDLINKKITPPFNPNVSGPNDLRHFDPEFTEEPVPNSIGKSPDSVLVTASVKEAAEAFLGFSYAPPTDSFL
As for `CNc1nccn2c(-c3ccnc(NCC(C)(C)CO)n3)c(-c3ccc(F)cc3)nc12`, the Ki was greater than 10 µM.

Compound `Cc1cc(OC[C@@H]2CC[C@H](C(=O)O)C2)c(NC(=O)Nc2cnc(C#N)cn2)cc1Cl` yielded a Ki of 6.31 µM.

Compound `Cc1c(-c2cccc(OCc3ccccc3)c2)c2c(N)ncnc2n1[C@H]1CC[C@@H](N2CCCC2)CC1` registered a Ki greater than 10 µM.

`O=C(Nc1nc2ccccc2n1CCCO)c1cccc([N+](=O)[O-])c1`: the Ki was greater than 10 µM.

In the case of `CC(=O)N[C@@H]1CCN(c2nc3[nH]cc(C(=O)O)c(=O)c3c(C)c2F)C1`, the Ki is greater than 10 µM.

In turn, `N#Cc1ccc(NC(=O)Nc2ccnc3cc(C(F)(F)F)ccc23)nc1` showed a Ki greater than 10 µM.

`COc1cccc(C(=O)Nc2cnc3[nH]cc(-c4ccccc4)c3c2)c1`: the Ki was 2 µM.

In turn, `Cc1ccc(-c2cnc(N)c3c(-c4ccc(NC(=O)Nc5cccc(F)c5)cc4)csc23)cn1` displayed a Ki greater than 10 µM.

In turn, `CSc1ccccc1CNc1ncc([N+](=O)[O-])c(NCC2CCC(CN)CC2)n1` (stereo unspecified) had an inhibition constant (Ki) of 6.31 µM.

`Cc1ccc(F)c(NC(=O)Nc2ccc(-c3ccc4nccnc4c3N)cc2)c1`: the Ki is greater than 10 µM.

`COc1ccc(CNc2c(Nc3ccncc3)c(=O)c2=O)c(OC)c1` came in with a Ki greater than 10 µM.

Regarding `Nc1n[nH]c2ccc(-c3nnn(Cc4ccccc4)c3-c3ccc(F)cc3)cc12`, the Ki came out at 2.51 µM.

Regarding `Cc1n[nH]c2ccc(-c3cncc(OCC(CN)Cc4ccccc4)c3)cc12` (stereo unspecified), the Ki came out at 1.26 µM.

For `Cc1cc(N2CCOCC2)cc2[nH]c(-c3c(NC[C@@H](O)c4cccc(Cl)c4)cc[nH]c3=O)nc12`, the Ki was greater than 10 µM.

`Cc1nc(COc2ccccc2Cl)sc1-c1ccnc(N)n1` gave a Ki of 1 µM.

In the case of `Nc1c(-c2ccc(NC(=O)Nc3cccc(C(F)(F)F)c3)cc2)ccc2nccnc12`, the inhibition constant Ki was greater than 10 µM.

For `OCCCn1cnc(-c2ccccc2)c1-c1ccncc1`, the Ki is greater than 10 µM.

`N[C@H](COc1cncc(-c2cc3cnccc3s2)c1)Cc1c[nH]c2ccccc12` registered a Ki of 1 µM.

For `C[C@H](Nc1nccc(-c2c(-c3ccc(F)cc3)nc3occn23)n1)c1ccccc1`, the Ki is greater than 10 µM.

Take `C[C@@H](N)C1CCC(C(=O)Nc2ccnc3[nH]ccc23)CC1` (stereo partly specified): the Ki was greater than 10 µM.

For `CSc1cnc2c(ccc3cnccc32)c1O`, the Ki was determined as 0.158 µM.

For `CCOc1nc(C(=O)NCc2ccc(S(N)(=O)=O)cc2)cc(N)c1C#N`, the Ki is greater than 10 µM.

As for `N[C@@H]1[C@H]2CN(c3nc4c(cc3F)c(=O)c(C(=O)O)cn4-c3ccc(F)cc3F)C[C@@H]12`, the Ki was greater than 10 µM.

The compound `CCOC(=O)c1cccc2[nH]c(-c3ccc(N4CCC(N)C4)cc3)nc12` (stereo unspecified) displayed a Ki greater than 10 µM.

`Cc1cccc(NC(=O)Nc2ccc(-c3noc4ncnc(N)c34)cc2)c1` came in with an inhibitory constant (Ki) greater than 10 µM.

`O=c1[nH]sc2c1c(=O)c1cc(F)c(NCc3ccccc3)c(F)c1n2C1CC1` yielded an inhibition constant (Ki) greater than 10 µM.

With `CC(C)c1nnc2ccc(-c3c(-c4ccc(F)cc4F)nc4n3CCC4)nn12`, the Ki is greater than 10 µM.

`Cc1cccc(NC(=O)Nc2ccc(-c3cccc4c3CNC4=O)cc2)c1` came in with a Ki greater than 10 µM.

On to `C[C@]1(O)C[C@@H](c2nc(-c3ccc4ccc(-c5ccccc5)nc4c3)c3c(N)nccn32)C1`, for which the inhibitory constant (Ki) was greater than 10 µM.

As to `O=C(Nc1cccc(C(F)(F)F)n1)Nc1ccnc2c(Cl)cccc12`, the Ki is greater than 10 µM.

With `OCCCn1cnc(-c2ccc(F)cc2)c1-c1ccncc1`, the Ki was greater than 10 µM.

On to `NC(=O)c1cccc2[nH]c(-c3cccc(NCCN4CCCC4)n3)nc12`, for which the Ki is greater than 10 µM.

Consider `COc1ccc(CNc2c(Nc3ccc4[nH]ncc4c3)c(=O)c2=O)cc1`, for which the inhibition constant Ki is greater than 10 µM.

The compound `O=C(Nc1n[nH]c2ccc(-c3cn(Cc4ccccc4)nn3)cc12)c1cccc(F)c1` registered a Ki of 0.1 µM.

`O=C(Nc1ccc(CO)cc1)c1cnn2c(-c3ccccc3)ccnc12` returned a Ki greater than 10 µM.

`Cc1nsc2[nH]cc(C(=O)O)c(=O)c12`: the inhibitory constant (Ki) was greater than 10 µM.

In the case of `COc1cc(N2CCC(N3CCN(C)CC3)CC2)ccc1Nc1ncc(Cl)c(Nc2ccccc2S(=O)(=O)C(C)C)n1`, the Ki is greater than 10 µM.

As to `CC(C)c1nnc2ccc(-c3c(-c4ccc(F)cc4F)nc4occn34)nn12`, the Ki was greater than 10 µM.

With `Cc1nc2ccc(NS(=O)(=O)c3ccc(N)cc3)cc2nc1C`, the Ki is greater than 10 µM.

`NC(=O)c1cccc2[nH]c(-c3ccc(NC(=O)c4cccc(S(=O)(=O)N5CCOCC5)c4)cc3)nc12` showed a Ki greater than 10 µM.

On to `Cc1nn(-c2ccccc2)c2c1c(=O)c1cc(Cl)ccc1n2O`, for which the Ki is greater than 10 µM.

As for `Nc1ncnc2c1N=C(c1ccc(NC(=O)Nc3cccc(C(F)(F)F)c3)cc1)CCN2`, the Ki is 2.51 µM.

`Cc1ccc(-c2ccc(NC(=O)Nc3cccc(Br)c3)cc2)c2c(N)n[nH]c12` showed a Ki of 5.01 µM.

The compound `COCCO[C@H]1CC[C@H](n2nc(-c3ccc(Nc4nc5cc(C)cc(C)c5o4)cc3)c3c(N)ncnc32)CC1` displayed a Ki greater than 10 µM.

In turn, `N#Cc1ncc2nc1OCCCCCOc1cc(CCCO)c(Cl)cc1NC(=O)N2` showed an inhibition constant Ki greater than 10 µM.

`O=C1CC(c2ccc(Cl)cc2Cl)Cc2[nH]c3cc(Cl)ccc3c(=O)c21` (stereo unspecified): the inhibition constant (Ki) is greater than 10 µM.

For `O=C(Nc1cccc(C(F)(F)F)n1)Nc1ccnc2c(C(F)(F)F)cccc12`, the inhibition constant Ki is greater than 10 µM.

With `Cc1cccc(NC(=O)Nc2ccc(-c3csc4c(C#CCN5CCOCC5)cnc(N)c34)cc2)c1`, the Ki worked out at 6.31 µM.

Regarding `CC(C)(C)c1cnc(CSc2cnc(NC(=O)C3CCNCC3)s2)o1`, the Ki was greater than 6.31 µM.

In turn, `CC(C)(CO)CNc1nccc(-c2c(-c3ccc(F)cc3)nc3c(Cl)nccn23)n1` returned a Ki greater than 10 µM.

In turn, `CC(=O)c1cccc(-c2cnc3[nH]ccc3c2)c1` registered a Ki greater than 10 µM.

`NC(=O)c1cn(-c2ccc(O)cc2Cl)c2cc(-c3ccncc3)ccc2c1=O` came in with a Ki of 7.94 µM.

`CSc1c[nH]c2ncnc(NCCCO)c12` came in with a Ki greater than 10 µM.

As for `COc1cc(Nc2ncc(F)c(Nc3ccc4c(n3)NC(=O)C(C)(C)O4)n2)cc(OC)c1OC`, the Ki was greater than 7.94 µM.

For `COc1ccc(OC)c(NC(=O)c2cnn3c(-c4ccccc4)ccnc23)c1`, the Ki is greater than 10 µM.

The compound `COc1ccc(/C=C2/S/C(=N/c3ccccc3)NC2=O)cc1O` came in with a Ki of 5.01 µM.

Compound `Cc1cccc(NC(=O)Nc2ccc(-c3coc4ncnc(N)c34)cc2)c1` showed an inhibitory constant (Ki) of 2 µM.

For `CCOC(=O)C1=C(N)n2c(s/c(=C\c3cccs3)c2=O)=C(C(N)=O)C1c1cccs1` (stereo unspecified), the inhibitory constant (Ki) is greater than 10 µM.

As to `C(=C\c1cncc(O[C@@H]2CCNC2)c1)/c1ccncc1`, the Ki is greater than 10 µM.

For the compound `O=c1nc(-c2cc3c(Oc4ccc(I)cc4)cncc3s2)[nH]o1`, the Ki came to 0.794 µM.

On to `Nc1ncc(-c2ccoc2)c2scc(-c3ccc(NC(=O)Nc4cccc(F)c4)cc3)c12`, for which the Ki came to 6.31 µM.

In the case of `N[C@H]1CC[C@H](Nc2nccc(-c3c[nH]c4ncccc34)n2)CC1`, the Ki came to 0.0501 µM.

`CCc1nccn2c(-c3ccnc(NCC(C)(C)O)n3)c(-c3ccc(F)cc3F)nc12` came in with a Ki greater than 10 µM.

For the compound `O=C1Nc2ccccc2Nc2ccccc21`, the Ki was greater than 10 µM.

Compound `CCc1nc2c(c3cc(OC)c(OC)cc13)C(=O)NC2=O` yielded a Ki greater than 10 µM.

The compound `Cc1cc(NC(=O)Cc2ccc(-c3cccc4[nH]nc(N)c34)cc2)ccc1F` showed a Ki of 1.26 µM.

The compound `Cc1ccc(NC(=O)Nc2ccc(-c3coc4ncnc(N)c34)cc2)cc1` showed a Ki greater than 10 µM.

The compound `CCCOc1nc(NC(C)=O)cc(N)c1C#N` came in with a Ki greater than 10 µM.

As to `COc1cccc([C@@H](C)NC(=O)c2cnc(-c3ccncc3)s2)c1`, the Ki stood at 0.501 µM.

In the case of `O=C(N[C@H](CO)c1ccccc1)N1CC=C(c2c[nH]c3ncccc23)CC1`, the Ki amounted to 0.398 µM.

With `COc1nccc(-c2c(-c3ccc(F)cc3)ncn2C2CCNCC2)n1`, the Ki is greater than 10 µM.

Compound `N[C@@H](COCc1ccccc1)COc1cncc(/C=C/c2ccncc2)c1` gave a Ki greater than 10 µM.

The compound `O=C(O)c1ccccc1Nc1ccnc(Nc2ccc3[nH]ncc3c2)n1` returned a Ki of 0.501 µM.

Take `CS(=O)(=O)N(Cc1ccc2[nH]c(=O)c3cccn3c2c1)C1CC1`: the Ki was greater than 10 µM.

In turn, `CN(C)C(=O)Nc1ccc2nc(-c3ccco3)c(-c3ccco3)nc2c1` had a Ki greater than 10 µM.

Compound `Nc1n[nH]c2cccc(-c3ccc(NC(=O)Nc4cc(C(=O)O)ccc4F)cc3)c12` came in with a Ki of 0.398 µM.

`Cc1ccc(CNc2ccc3nnc(-c4ccccc4)n3n2)cc1` had an inhibition constant (Ki) greater than 10 µM.

With `CC(C)Nc1c(-c2ccc3[nH]ncc3c2)nc2ncccn12`, the Ki is 1.26 µM.

Compound `O=C(NNC(=S)Nc1ccc(Cl)cc1)C(O)(c1ccccc1)c1ccccc1` had a Ki greater than 10 µM.

Compound `O=S(=O)(c1cccc2cnccc12)N1CCCNCC1` had a Ki of 6.31 µM.

In turn, `COc1cc(OC)c(Nc2ccc3nnc(-c4ccccc4)n3n2)cc1Cl` had a Ki greater than 10 µM.

`CCn1c(-c2nonc2N)nc2cnc(Oc3cccc(NC(=O)c4ccc(OCCN5CCOCC5)cc4)c3)cc21` showed a Ki of 0.2 µM.

In the case of `COc1cccc([C@@H](C)NC(=O)c2ccc(-c3ccncc3)cc2NCCCN)c1`, the Ki came to 0.398 µM.

As to `O=C(Cc1ccc(Cl)cc1)Nc1[nH]nc2c1CCC2`, the Ki was greater than 10 µM.

`Cc1n[nH]c2cccc(-c3ccc(NC(=O)Nc4cccc(C(F)(F)F)c4)cc3)c12` yielded a Ki greater than 10 µM.

Compound `CN(C(=O)C1CCCCC1)c1ccc2c(c1)nc(NC(=O)c1ccc(C#N)cc1)n2C` had an inhibition constant (Ki) greater than 10 µM.

The compound `c1cc2cc(-c3ccc4cn[nH]c4c3)cnc2[nH]1` gave a Ki of 2 µM.

Turning to `CCOc1nc(C(=O)NCc2cccnc2)cc(N)c1C#N`, the Ki is greater than 10 µM.

The compound `Cc1ccc(F)c(NC(=O)Nc2ccc(-c3nsc4ncnc(N)c34)cc2)c1` displayed a Ki greater than 10 µM.

The compound `Cc1cccc(NC(=O)Nc2ccc3c(c2)CCc2sc4ncnc(N)c4c2-3)c1` displayed an inhibitory constant (Ki) greater than 10 µM.

Take `COc1ccc(/C=N/Nc2ncnc3c2[nH]c2ccccc23)cc1OC`: the inhibition constant Ki is greater than 10 µM.

In the case of `CCOc1nc(NC(=O)Cc2cc(OC)c(S(C)(=O)=O)cc2OC)cc(N)c1C#N`, the inhibition constant (Ki) was greater than 10 µM.

`NS(=O)(=O)c1cccc(Nc2ncc3ccn(Cc4ccccc4)c3n2)c1` came in with an inhibition constant (Ki) of 3.98 µM.

Turning to `CCCCCCCCCCCCOc1ccc(NC(=N)N)cc1NC(=N)N`, the inhibition constant Ki is greater than 10 µM.

With `CCCOn1c2ccc(Cl)cc2c(=O)c2c(C)nn(C)c21`, the Ki was greater than 10 µM.

Turning to `CN1CCC(NC(=O)c2cc3c(-c4ccccc4)n[nH]c3s2)CC1`, the Ki stood at 6.31 µM.
